Data taken from ChEMBL document CHEMBL5584268, “Dactylfungins and Tetralones: Bioactive Metabolites from a Nematode-Associated Laburnicola nematophila” (J Nat Prod, 2024).
Converted amounts (≈) assume the structure as drawn. The source made the active and inactive calls. No cut-off for these calls is given here.

What was measured:
Staphylococcus aureus [1] = assay: Antimicrobial activity against Staphylococcus aureus DSM 346 up to 67 ug/ml measured after 72 hrs by serial dilution assay; format: functional, organism-based; details: dose <= 67.0 µg/ml
Rhodotorula glutinis [2] = assay: Antimicrobial activity against Rhodotorula glutinis DSM 10134 up to 67 ug/ml measured after 72 hrs by serial dilution assay; format: functional, organism-based; details: dose <= 67.0 µg/ml
L929 = assay: Cytotoxicity against mouse L929 cells by MTT assay; format: toxicity, cell-based
KB 3-1 = assay: Cytotoxicity against human KB-3-1 cells by MTT assay; format: functional, cell-based
Caenorhabditis elegans = assay: Nematicidal activity against Caenorhabditis elegans at 10 to 100 ug/ml incubated for 18 hrs by stereomicroscopic analysis; format: functional, organism-based; details: dose 10-100 µg/ml
Rhodotorula glutinis [3] = assay: Antimicrobial activity against Rhodotorula glutinis DSM 10134 measured after 72 hrs by serial dilution assay; format: functional
Aspergillus fumigatus [4] = assay: Antimicrobial activity against Aspergillus fumigatus ATCC 204305 measured after 72 hrs by serial dilution assay; format: functional
Aspergillus fumigatus [5] = assay: Antimicrobial activity against Aspergillus fumigatus CCF 3522 measured after 48 hrs by serial dilution assay; format: functional
Aspergillus fumigatus [6] = assay: Antimicrobial activity against azole-resistant Aspergillus fumigatus CCF 6651 measured after 72 hrs by serial dilution assay; format: functional
Aspergillus fumigatus [7] = assay: Antimicrobial activity against azole-resistant Aspergillus fumigatus CCF 6674 measured after 72 hrs by serial dilution assay; format: functional
Cryptococcus neoformans [8] = assay: Antimicrobial activity against Cryptococcus neoformans CCF 1081 measured after 48 hrs by serial dilution assay; format: functional
Mucor plumbeus [9] = assay: Antimicrobial activity against Mucor plumbeus CCF 2612 measured after 48 hrs by serial dilution assay; format: functional
Candida albicans [10] = assay: Antimicrobial activity against Candida albicans CCM 8215 measured after 12 hrs by serial dilution assay; format: functional
Staphylococcus aureus [11] = assay: Antimicrobial activity against Staphylococcus aureus DSM 346 measured after 72 hrs by serial dilution assay; format: functional
Aspergillus fumigatus [12] = assay: Antimicrobial activity against azole-resistant Aspergillus fumigatus CCF 6651 up to 67 ug/ml measured after 72 hrs by serial dilution assay; format: functional, organism-based; details: dose <= 67.0 µg/ml
Candida albicans [13] = assay: Antimicrobial activity against Candida albicans CCM 8215 up to 67 ug/ml measured after 12 hrs by serial dilution assay; format: functional, organism-based; details: dose <= 67.0 µg/ml
Cryptococcus neoformans [14] = assay: Antimicrobial activity against Cryptococcus neoformans CCF 1081 up to 67 ug/ml measured after 48 hrs by serial dilution assay; format: functional, organism-based; details: dose <= 67.0 µg/ml
Mucor plumbeus [15] = assay: Antimicrobial activity against Mucor plumbeus CCF 2612 up to 67 ug/ml measured after 48 hrs by serial dilution assay; format: functional, organism-based; details: dose <= 67.0 µg/ml

| Molecule | Activity (Staphylococcus aureus [1]) | Activity (Rhodotorula glutinis [2]) | Activity (L929) | Activity (KB 3-1) | Activity (Caenorhabditis elegans) | MIC (Aspergillus fumigatus [4]) [µg/mL] | MIC (Aspergillus fumigatus [6]) [µg/mL] | MIC (Aspergillus fumigatus [7]) [µg/mL] | MIC (Cryptococcus neoformans [8]) [µg/mL] | further results |
| --- | --- | --- | --- | --- | --- | --- | --- | --- | --- | --- |
| COc1cc2c(c(O)c1/C=C/C(C)=O)C(=O)CC[C@H]2O | inactive | inactive | Toxic | Active | inactive | – | – | – | – | – |
| NYSTATIN | – | – | – | – | – | – | – | – | – | MIC (Rhodotorula glutinis [3]): 4.2 µg/mL |
| C[C@@H]1[C@H](O)[C@@H](C)/C=C/C=C/C=C/C=C/C=C/C=C/C=C/[C@H](O[C@@H]2O[C@H](C)[C@@H](O)[C@H](N)[C@@H]2O)C[C@@H]2O[C@](O)(C[C@@H](O)C[C@@H](O)[C@H](O)CC[C@@H](O)C[C@@H](O)CC(=O)O[C@H]1C)C[C@H](O)[C@H]2C(=O)O [AMPHOTERICIN B] | – | – | – | – | – | 0.31 (≈ 0.335 µM) | 0.16 (≈ 0.173 µM) | 2.5 (≈ 2.71 µM) | 2.5 (≈ 2.71 µM) | MIC (Aspergillus fumigatus [5]): 0.31 µg/mL (≈ 0.335 µM); MIC (Mucor plumbeus [9]): 0.31 µg/mL (≈ 0.335 µM) |
| CC[C@H](C)C[C@@H](C)/C=C(C)/C=C/C[C@H](C)[C@H](O)[C@@H](C)/C=C(C)/C=C/[C@H](O)[C@@H](C)c1cc(O)c([C@H]2O[C@@H](CO)C[C@@H](O)[C@@H]2O)c(=O)o1 | – | – | – | – | – | 8.32 (≈ 12.9 µM) | 0.52 (≈ 0.804 µM) | 0.52 (≈ 0.804 µM) | 4.15 (≈ 6.42 µM) | MIC (Candida albicans [10]): 8.3 µg/mL (≈ 12.8 µM); MIC (Mucor plumbeus [9]): 1.04 µg/mL (≈ 1.61 µM) |
| COc1cc2c(c(O)c1Cc1c(O)c(O)c3cc(C)oc(=O)c3c1O)C(=O)CC[C@H]2O | inactive | inactive | Toxic | Active | inactive | – | – | – | – | – |
| GENTAMICIN | – | – | – | – | – | – | – | – | – | MIC (Staphylococcus aureus [11]): 0.21 µg/mL |
| CC[C@H](C)[C@H](O)[C@@H](C)/C=C(C)/C=C/C[C@H](C)[C@H](O)[C@@H](C)/C=C(C)/C=C/[C@H](O)C(C)(C)c1cc(O)c([C@H]2O[C@@H](CO)C[C@@H](O)[C@@H]2O)c(=O)o1 | inactive | inactive | – | – | inactive | 0.26 (≈ 0.384 µM) | – | 16.6 (≈ 24.5 µM) | – | Activity (Aspergillus fumigatus [12]): inactive; Activity (Candida albicans [13]): inactive; Activity (Cryptococcus neoformans [14]): inactive; Activity (Mucor plumbeus [15]): inactive |
| CC[C@H](C)C[C@@H](C)/C=C(C)/C=C/C[C@H](C)[C@H](O)[C@@H](C)/C=C(C)/C=C/[C@H](O)C(C)(C)c1cc(O)c([C@H]2O[C@@H](CO)C[C@@H](O)[C@@H]2O)c(=O)o1 | – | – | – | – | inactive | 0.52 (≈ 0.787 µM) | 2.08 (≈ 3.15 µM) | 0.52 (≈ 0.787 µM) | 4.15 (≈ 6.28 µM) | MIC (Staphylococcus aureus [11]): 66.6 µg/mL (≈ 101 µM); MIC (Aspergillus fumigatus [5]): 0.52 µg/mL (≈ 0.787 µM); MIC (Rhodotorula glutinis [3]): 8.3 µg/mL (≈ 12.6 µM); Activity (Candida albicans [13]): inactive; Activity (Mucor plumbeus [15]): inactive |
| COc1cc2c(c(O)c1CO)C(=O)CC[C@H]2O | inactive | inactive | Non-Toxic | inactive | inactive | – | – | – | – | – |
